The source of these data is ChEMBL document CHEMBL1201862, “PubChem BioAssay data set” (2004).

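Tested at 5 concentrations; 48 h exposure; 96-well plates; endpoints linearly interpolated, else capped at highest concentration. The concentration for 50% growth inhibition is given as GI50.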 Calls of active or inactive are those of the source. No stated cut-off is given here; in the data, active = GI50 up to about 1.1 µM and inactive = higher.

Test systems include SNB-19; COLO 205; SF-539; MDA-MB-435; PC-3; HOP-62; UACC-257; OVCAR-8; HCT-116; NCI-H226; HCC 2998; OVCAR-3; UACC-62; MCF7; NCI-H460; UO-31; SNB-75; OVCAR-4; U-251.
Holding throughout (experiment): DTP human tumour cell line panel, 48 h

Usually GI50 stands for the concentration giving 50% growth inhibition. Regarding `Cc1ccc(-c2cn3c(nc4ccccc43)c(-c3ccccc3)n2)cc1`, the GI50 in the assay on SNB-19 was 16.7 µM (inactive); in the assay with COLO 205, > 100 µM (inactive); in the assay on SF-539, 58.2 µM (inactive); with MDA-MB-435 it was > 100 µM (inactive); in the assay on PC-3 it was > 100 µM (inactive); in the assay with HOP-62, 15.6 µM (inactive). In addition, the GI50 was > 100 µM (inactive) with UACC-257; 27.9 µM (inactive) with OVCAR-8; 75 µM (inactive) in the assay with HCT-116; 58.3 µM (inactive) in the assay with NCI-H226; > 100 µM (inactive) in the assay with HCC 2998; > 100 µM (inactive) with OVCAR-3. The GI50 in the assay with UACC-62 is 22.4 µM (inactive); with MCF7, 27.7 µM (inactive); in the assay with NCI-H460 it was > 94.4 µM (inactive); with UO-31, > 49.1 µM (inactive); in the assay on SNB-75, 8.45 µM (inactive); in the assay on OVCAR-4, > 80.7 µM (inactive). Besides, the GI50 with U-251 was 18.8 µM (inactive).
Consider `CCCCC1C=Cn2c(=O)oc3c(OC(C)C)c(C)c(O)c1c32` (stereo unspecified), for which the concentration for 50% growth inhibition (GI50) in the assay with SNB-19 is 0.323 µM (active); in the assay with COLO 205 it was 3.01 µM (inactive); in the assay on SF-539 it was 2.49 µM (inactive); in the assay with MDA-MB-435 it was 1.33 µM (inactive); with PC-3, 2.43 µM (inactive); in the assay with HOP-62 it was 0.0497 µM (active). Moreover, the GI50 is 2.44 µM (inactive) in the assay with UACC-257; 1.73 µM (inactive) with OVCAR-8; 0.977 µM (active) in the assay on HCT-116; 1.63 µM (inactive) in the assay on NCI-H226; 2.96 µM (inactive) with HCC 2998; 2.75 µM (inactive) in the assay on OVCAR-3. For the same compound, the concentration for 50% growth inhibition (GI50) in the assay on UACC-62 is 0.929 µM (active); in the assay with MCF7 it was 0.509 µM (active); with NCI-H460, 0.652 µM (active); in the assay with UO-31 it was 0.71 µM (active); in the assay on SNB-75, 0.466 µM (active); in the assay on OVCAR-4, 0.601 µM (active). Also, the GI50 with U-251 is 1.14 µM (inactive).
`COc1ccc(C2CC(=O)Oc3ccccc3O2)cc1` (stereo unspecified): the GI50 with SNB-19 was > 100 µM (inactive); in the assay with COLO 205, > 100 µM (inactive); in the assay with SF-539, > 100 µM (inactive); with MDA-MB-435 it was 70.5 µM (inactive); with PC-3 it was > 100 µM (inactive); in the assay with HOP-62 it was > 100 µM (inactive). Also, the GI50 in the assay with UACC-257, in the assay with OVCAR-8, with HCT-116, with NCI-H226, in the assay with HCC 2998 and with OVCAR-3 was > 100 µM (inactive) throughout. Also, the GI50 in the assay on UACC-62 was > 100 µM (inactive); in the assay on MCF7, > 100 µM (inactive); in the assay with NCI-H460, > 100 µM (inactive); in the assay with UO-31, 88.5 µM (inactive); with SNB-75, > 100 µM (inactive); in the assay on OVCAR-4, > 100 µM (inactive). Further, the GI50 in the assay on U-251 is > 100 µM (inactive).
Turning to `COC(=O)C(CC(C)C)NC(=O)C(NC(=O)c1ccc(-c2ccc(Cl)cc2Cl)o1)C(C)C` (stereo unspecified), the GI50 is 30.5 µM (inactive) in the assay with SNB-19; 17.7 µM (inactive) in the assay on COLO 205; 29.2 µM (inactive) in the assay on SF-539; 22.1 µM (inactive) in the assay with MDA-MB-435; 14.1 µM (inactive) in the assay with PC-3; 21.4 µM (inactive) with HOP-62. Moreover, the GI50 with UACC-257 was 17.1 µM (inactive); in the assay on OVCAR-8, 28.2 µM (inactive); with HCT-116 it was 12.3 µM (inactive); with NCI-H226, 32.4 µM (inactive); in the assay with HCC 2998, 17.3 µM (inactive); with OVCAR-3 it was 16.3 µM (inactive). Further, the GI50 in the assay with UACC-62 was 13.1 µM (inactive); in the assay on MCF7, 16.5 µM (inactive); with NCI-H460, 14.9 µM (inactive); with UO-31, 29 µM (inactive); with SNB-75, 23.9 µM (inactive); with OVCAR-4 it was 24.9 µM (inactive). In addition, the GI50 in the assay on U-251 was 17.9 µM (inactive).
